Measurements: the supplement of paper PMC10307832

Compound: COC1=CC=C(C=C1)COC2=C(C=C(C=C2)CC3=CN=C(N=C3N)N)OC [GW-2580] + CC(=O)Nc1cccc(-n2c(=O)n(C3CC3)c(=O)c3c(Nc4ccc(I)cc4F)n(C)c(=O)c(C)c32)c1 [Trametinib] (partner 0.02 µM)
Assay: relative viability (nuclei count vs DMSO), 5 days (fraction); higher = more cells survive
In short: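 For relative viability, nuclei counts in treated wells were divided by those in vehicle wells. Lung cancer cell lines had been pin-tool dosed in 1536-well plates the day after seeding and cultured for 5 days, then fixed and stained in one step (final 0.05% Triton X-100, 1% formaldehyde, 1 ug/ml Hoechst) and imaged at 4×. Doses were one drug alone or a fixed anchor-drug dose plus five library-drug doses (not always all listed) in √10 steps, and values are duplicate-plate medians.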

## UMC-11
First compound 0.08 µM
  relative viability: 0.826
First compound 0.8 µM
  relative viability: 0.866
First compound 2.53 µM
  relative viability: 0.574
First compound 8 µM
  relative viability: 0.817
